Assay results taken from patent publication US20210284952A1, “METHODS OF APPLYING ACETATE TOXICITY AND INDUCING ACETATE UPTAKE IN MICROALGAE CULTURES” (HELIAE DEVELOPMENT LLC, priority 2016, published 2021).
Read-outs that look alike come from different tables or passages of the source.

How the values were obtained:
Chlorella sp. HS26 = conditions: for Cell Dry Weight of Chlorella: 2.4 g/L
Protocol: This experiment was conducted to determine the effect of different culture medium pH levels on the growth of Chlorella sp. HS26 at a constant culture medium acetate concentration. Duplicate 100 ml flasks of axenic cultures of Chlorella were adjusted to initial pH levels of 2.5, 3.5, 4.5, 5.5, 6.5, 7.0, 7.5, 8.5, 9.5, and 10.5. The culture pH was adjusted using either hydrochloric acid (HCl) or sodium hydroxide (NaOH). […] Samples of the flask culture were taken initially and every other day over a six day period (144 hours).

[1] = tested on: Aurantiochytrium sp. HS399
Protocol: Cultures of Aurantiochytrium sp. […] 100 mL volume cultures were prepared in 250 mL flasks, and cultured at a pH of 7.0, temperature of 27° C., a shaking frequency of 180 rpm, in the dark for 5 days (120 hours). The cultures were inoculated at the same cell density.

## CC(=O)[O-].[Na+] [Sodium Acetate, sodium acetate]
Chlorella sp. HS26; 2.4 g/L sodium acetate, pH of 5.5 or lower
  cell dry weight over time: did not increase over time
Chlorella sp. HS26; initial pH 2.5, 0 h
  Cell Dry Weight of Chlorella: 0.6 g/L
Chlorella sp. HS26; initial pH 2.5, 24 h
  Cell Dry Weight of Chlorella: 0.5 g/L
Chlorella sp. HS26; initial pH 2.5, 48 h
  Cell Dry Weight of Chlorella: 0.5 g/L
Chlorella sp. HS26; initial pH 3.5, 0 h
  Cell Dry Weight of Chlorella: 0.6 g/L
Chlorella sp. HS26; initial pH 3.5, 24 h
  Cell Dry Weight of Chlorella: 0.5 g/L
Chlorella sp. HS26; initial pH 3.5, 48 h
  Cell Dry Weight of Chlorella: 0.5 g/L
Chlorella sp. HS26; initial pH 4.5, 0 h
  Cell Dry Weight of Chlorella: 0.6 g/L
Chlorella sp. HS26; initial pH 4.5, 24 h
  Cell Dry Weight of Chlorella: 0.5 g/L
Chlorella sp. HS26; initial pH 4.5, 48 h
  Cell Dry Weight of Chlorella: 0.4 g/L
Chlorella sp. HS26; initial pH 5.5, 0 h
  Cell Dry Weight of Chlorella: 0.6 g/L
Chlorella sp. HS26; initial pH 5.5, 24 h
  Cell Dry Weight of Chlorella: 0.6 g/L
Chlorella sp. HS26; initial pH 5.5, 48 h
  Cell Dry Weight of Chlorella: 0.6 g/L
Chlorella sp. HS26; initial pH 5.5, 96 h
  Cell Dry Weight of Chlorella: 0.4 g/L
Chlorella sp. HS26; initial pH 6.5, 0 h
  Cell Dry Weight of Chlorella: 0.6 g/L
Chlorella sp. HS26; initial pH 6.5, 24 h
  Cell Dry Weight of Chlorella: 0.8 g/L
Chlorella sp. HS26; initial pH 6.5, 48 h
  Cell Dry Weight of Chlorella: 1.8 g/L
Chlorella sp. HS26; initial pH 6.5, 96 h
  Cell Dry Weight of Chlorella: 4.3 g/L
Chlorella sp. HS26; initial pH 6.5, 144 h
  Cell Dry Weight of Chlorella: 6.0 g/L
Chlorella sp. HS26; initial pH 7.5, 0 h
  Cell Dry Weight of Chlorella: 0.6 g/L
Chlorella sp. HS26; initial pH 7.5, 24 h
  Cell Dry Weight of Chlorella: 0.6 g/L
Chlorella sp. HS26; initial pH 7.5, 48 h
  Cell Dry Weight of Chlorella: 1.7 g/L
Chlorella sp. HS26; initial pH 7.5, 96 h
  Cell Dry Weight of Chlorella: 4.4 g/L
Chlorella sp. HS26; initial pH 7.5, 144 h
  Cell Dry Weight of Chlorella: 6.0 g/L
Chlorella sp. HS26; initial pH 8.5, 0 h
  Cell Dry Weight of Chlorella: 0.6 g/L
Chlorella sp. HS26; initial pH 8.5, 24 h
  Cell Dry Weight of Chlorella: 0.8 g/L
Chlorella sp. HS26; initial pH 8.5, 48 h
  Cell Dry Weight of Chlorella: 2.4 g/L
Chlorella sp. HS26; initial pH 8.5, 96 h
  Cell Dry Weight of Chlorella: 4.2 g/L
Chlorella sp. HS26; initial pH 8.5, 144 h
  Cell Dry Weight of Chlorella: 6.0 g/L
Chlorella sp. HS26; initial pH 9.5, 0 h
  Cell Dry Weight of Chlorella: 0.6 g/L
Chlorella sp. HS26; initial pH 9.5, 24 h
  Cell Dry Weight of Chlorella: 0.8 g/L
Chlorella sp. HS26; initial pH 9.5, 48 h
  Cell Dry Weight of Chlorella: 1.2 g/L
Chlorella sp. HS26; initial pH 9.5, 96 h
  Cell Dry Weight of Chlorella: 4.3 g/L
Chlorella sp. HS26; initial pH 9.5, 144 h
  Cell Dry Weight of Chlorella: 6.1 g/L
Chlorella sp. HS26; initial pH 10.5, 0 h
  Cell Dry Weight of Chlorella: 0.6 g/L
Chlorella sp. HS26; initial pH 10.5, 24 h
  Cell Dry Weight of Chlorella: 0.9 g/L
Chlorella sp. HS26; initial pH 10.5, 48 h
  Cell Dry Weight of Chlorella: 1.4 g/L
Chlorella sp. HS26; initial pH 10.5, 96 h
  Cell Dry Weight of Chlorella: 4.3 g/L
Chlorella sp. HS26; initial pH 10.5, 144 h
  Cell Dry Weight of Chlorella: 6.1 g/L
[1]; concentrations of sodium acetate below 100 g/L
  growth: grew well
[1]; sodium acetate 5 g/L, 0 h
  Cell Dry Weight of Aurantiochytrium: 2.7 g/L
[1]; sodium acetate 5 g/L, 24 h
  Cell Dry Weight of Aurantiochytrium: 8.01 g/L
[1]; sodium acetate 5 g/L, 40 h
  Cell Dry Weight of Aurantiochytrium: 8.13 g/L
[1]; sodium acetate 5 g/L, 72 h
  Cell Dry Weight of Aurantiochytrium: 7.49 g/L
[1]; sodium acetate 5 g/L, 96 h
  Cell Dry Weight of Aurantiochytrium: 7.38 g/L
[1]; sodium acetate 5 g/L, 120 h
  Cell Dry Weight of Aurantiochytrium: 7.6 g/L
[1]; sodium acetate 10 g/L, 0 h
  Cell Dry Weight of Aurantiochytrium: 2.7 g/L
[1]; sodium acetate 10 g/L, 24 h
  Cell Dry Weight of Aurantiochytrium: 8.29 g/L
[1]; sodium acetate 10 g/L, 40 h
  Cell Dry Weight of Aurantiochytrium: 9.69 g/L
[1]; sodium acetate 10 g/L, 72 h
  Cell Dry Weight of Aurantiochytrium: 10.35 g/L
[1]; sodium acetate 10 g/L, 96 h
  Cell Dry Weight of Aurantiochytrium: 10 g/L
[1]; sodium acetate 10 g/L, 120 h
  Cell Dry Weight of Aurantiochytrium: 10.9 g/L
[1]; sodium acetate 20 g/L, 0 h
  Cell Dry Weight of Aurantiochytrium: 2.7 g/L
[1]; sodium acetate 20 g/L, 24 h
  Cell Dry Weight of Aurantiochytrium: 7.35 g/L
[1]; sodium acetate 20 g/L, 40 h
  Cell Dry Weight of Aurantiochytrium: 10.45 g/L
[1]; sodium acetate 20 g/L, 72 h
  Cell Dry Weight of Aurantiochytrium: 13.7 g/L
[1]; sodium acetate 20 g/L, 96 h
  Cell Dry Weight of Aurantiochytrium: 13.11 g/L
[1]; sodium acetate 20 g/L, 120 h
  Cell Dry Weight of Aurantiochytrium: 13.55 g/L
[1]; sodium acetate 40 g/L, 0 h
  Cell Dry Weight of Aurantiochytrium: 2.7 g/L
[1]; sodium acetate 40 g/L, 24 h
  Cell Dry Weight of Aurantiochytrium: 7.06 g/L
[1]; sodium acetate 40 g/L, 40 h
  Cell Dry Weight of Aurantiochytrium: 11.84 g/L
[1]; sodium acetate 40 g/L, 72 h
  Cell Dry Weight of Aurantiochytrium: 15.78 g/L
[1]; sodium acetate 40 g/L, 96 h
  Cell Dry Weight of Aurantiochytrium: 18.9 g/L
[1]; sodium acetate 40 g/L, 120 h
  Cell Dry Weight of Aurantiochytrium: 19.65 g/L
